Results as given in BindingDB's records for doi:10.1016/s0960-894x(02)00988-5 (Merck Research Laboratories, 2003).
pIC50: −log10 of the molar value. One block for each compound: values may come before it.

Columns and labels:
[1] = Inhibition over 48 hr of BAL strain HIV infrction of HeLa Magi cells expressing CCR5
[2] = as above; remark: listed apart in the source

Compound: CCCN(c1cccnc1)C1CCN(C[C@H]2CN([C@@H](C(=O)O)C3CCCCC3)C[C@@H]2c2ccccc2)CC1 [(R)-Cyclohexyl-{(3S,4S)-3-phenyl-4-[4-(propyl-pyridin-3-yl-amino)-piperidin-1-ylmethyl]-pyrrolidin-1-yl}-acetic acid]
pIC50 [1]: 7.48

Compound: CCCN(c1ccccn1)C1CCN(C[C@H]2CN(C(=O)C3CCCCC3)C[C@@H]2c2ccccc2)CC1 [cyclohexyl((3S,4S)-3-phenyl-4-((4-(propyl(pyridin-2-yl)amino)piperidin-1-yl)methyl)pyrrolidin-1-yl)methanone]
pIC50 [2]: 7.00

Compound: C=CCN(c1cccnc1)C1CCN(C[C@H]2CN(C(=O)C3CCCCC3)C[C@@H]2c2ccccc2)CC1 [{(3S,4S)-3-[4-(Allyl-pyridin-3-yl-amino)-piperidin-1-ylmethyl]-4-phenyl-pyrrolidin-1-yl}-cyclohexyl-methanone]
pIC50 [1]: 7.92

pIC50 [1]: 7.00
Compound: CCCN(c1ncc(C(F)(F)F)cn1)C1CCN(C[C@H]2CN([C@H](CC3CCC3)C(=O)O)C[C@@H]2c2cccc(F)c2)CC1 [(R)-3-Cyclobutyl-2-((3S,4S)-3-(3-fluoro-phenyl)-4-{4-[propyl-(5-trifluoromethyl-pyrimidin-2-yl)-amino]-piperidin-1-ylmethyl}-pyrrolidin-1-yl)-propionic acid]

Compound: CCCN(c1ncc(F)cn1)C1CCN(C[C@H]2CN([C@H](CC3CCC3)C(=O)O)C[C@@H]2c2cccc(F)c2)CC1 [(R)-3-Cyclobutyl-2-((3S,4S)-3-(3-fluoro-phenyl)-4-{4-[(5-fluoro-pyrimidin-2-yl)-propyl-amino]-piperidin-1-ylmethyl}-pyrrolidin-1-yl)-propionic acid]
pIC50 [1]: 7.48

Compound: CCCN(c1ncccn1)C1CCN(C[C@H]2CN([C@@H](C(=O)O)C3CCCCC3)C[C@@H]2c2ccccc2)CC1 [(R)-2-cyclohexyl-2-((3S,4S)-3-phenyl-4-((4-(propyl(pyrimidin-2-yl)amino)piperidin-1-yl)methyl)pyrrolidin-1-yl)acetic acid]
pIC50 [2]: 7.48

Compound: CCCN(c1ncccn1)C1CCN(C[C@H]2CN([C@H](CC3CCC3)C(=O)O)C[C@@H]2c2cccc(F)c2)CC1 [(R)-3-cyclobutyl-2-((3S,4S)-3-(3-fluorophenyl)-4-((4-(propyl(pyrimidin-2-yl)amino)piperidin-1-yl)methyl)pyrrolidin-1-yl)propanoic acid]
pIC50 [1]: 7.96

Compound: C=CCN(c1ccccn1)C1CCN(C[C@H]2CN(C(=O)C3CCCCC3)C[C@@H]2c2ccccc2)CC1 [{(3S,4S)-3-[4-(Allyl-pyridin-2-yl-amino)-piperidin-1-ylmethyl]-4-phenyl-pyrrolidin-1-yl}-cyclohexyl-methanone]
pIC50 [1]: 7.96

Compound: O=C(C1CCCCC1)N1C[C@H](CN2CCC(N(CC3CC3)c3ccccn3)CC2)[C@@H](c2ccccc2)C1 [Cyclohexyl-{(3S,4S)-3-[4-(cyclopropylmethyl-pyridin-2-yl-amino)-piperidin-1-ylmethyl]-4-phenyl-pyrrolidin-1-yl}-methanone]
pIC50 [2]: 7.48

Compound: CCCN(c1ccccn1)C1CCN(C[C@H]2CN(C(=O)c3ccccc3Cl)C[C@@H]2c2ccccc2)CC1 [(2-Chloro-phenyl)-{(3S,4S)-3-phenyl-4-[4-(propyl-pyridin-2-yl-amino)-piperidin-1-ylmethyl]-pyrrolidin-1-yl}-methanone]
pIC50 [2]: 6.52

Compound: CCCN(c1ccccn1)C1CCN(C[C@H]2CN(C(=O)N3CCCC3)C[C@@H]2c2ccccc2)CC1 [{(3S,4S)-3-Phenyl-4-[4-(propyl-pyridin-2-yl-amino)-piperidin-1-ylmethyl]-pyrrolidin-1-yl}-pyrrolidin-1-yl-methanone]
pIC50 [2]: 6.52

pIC50 [1]: 6.35
Compound: CCCN(c1nccc(C(F)(F)F)n1)C1CCN(C[C@H]2CN([C@H](CC3CCC3)C(=O)O)C[C@@H]2c2cccc(F)c2)CC1 [(R)-3-Cyclobutyl-2-((3S,4S)-3-(3-fluoro-phenyl)-4-{4-[propyl-(4-trifluoromethyl-pyrimidin-2-yl)-amino]-piperidin-1-ylmethyl}-pyrrolidin-1-yl)-propionic acid]

Compound: CCCN(c1cncnc1)C1CCN(C[C@H]2CN([C@H](CC3CCC3)C(=O)O)C[C@@H]2c2cccc(F)c2)CC1 [(R)-3-Cyclobutyl-2-{(3S,4S)-3-(3-fluoro-phenyl)-4-[4-(propyl-pyrimidin-5-yl-amino)-piperidin-1-ylmethyl]-pyrrolidin-1-yl}-propionic acid]
pIC50 [1]: 7.96

Compound: O=C(O)[C@@H](CC1CCC1)N1C[C@H](CN2CCC(N(CC3CC3)c3ncccn3)CC2)[C@@H](c2cccc(F)c2)C1 [(R)-3-Cyclobutyl-2-[(3S,4S)-3-[4-(cyclopropylmethyl-pyrimidin-2-yl-amino)-piperidin-1-ylmethyl]-4-(3-fluoro-phenyl)-pyrrolidin-1-yl]-propionic acid]
pIC50 [1]: 7.96

Compound: C=CCN(c1ccc(C(F)(F)F)cn1)C1CCN(C[C@H]2CN(C(=O)C3CCCCC3)C[C@@H]2c2ccccc2)CC1 [((3S,4S)-3-{4-[Allyl-(5-trifluoromethyl-pyridin-2-yl)-amino]-piperidin-1-ylmethyl}-4-phenyl-pyrrolidin-1-yl)-cyclohexyl-methanone]
pIC50 [1]: 7.43

Compound: CCCN(c1ncccn1)C1CCN(C[C@H]2CN([C@@H](C(=O)O)C3CCCCC3)C[C@@H]2c2cccc(F)c2)CC1 [(R)-Cyclohexyl-{(3S,4S)-3-(3-fluoro-phenyl)-4-[4-(propyl-pyrimidin-2-yl-amino)-piperidin-1-ylmethyl]-pyrrolidin-1-yl}-acetic acid]
pIC50 [1]: 7.48

Compound: CCCN(c1ccccn1)C1CCN(C[C@H]2CN([C@@H](C(=O)O)C3CCCCC3)C[C@@H]2c2ccccc2)CC1 [(R)-Cyclohexyl-{(3S,4S)-3-phenyl-4-[4-(propyl-pyridin-2-yl-amino)-piperidin-1-ylmethyl]-pyrrolidin-1-yl}-acetic acid]
pIC50 [2]: 7.00

Compound: CCCN(c1ccncn1)C1CCN(C[C@H]2CN([C@H](CC3CCC3)C(=O)O)C[C@@H]2c2cccc(F)c2)CC1 [(R)-3-Cyclobutyl-2-{(3S,4S)-3-(3-fluoro-phenyl)-4-[4-(propyl-pyrimidin-4-yl-amino)-piperidin-1-ylmethyl]-pyrrolidin-1-yl}-propionic acid]
pIC50 [2]: 7.48

Compound: CCCN(c1ccccn1)C1CCN(C[C@H]2CN(C(=O)C3CCC3)C[C@@H]2c2ccccc2)CC1 [cyclobutyl((3S,4S)-3-phenyl-4-((4-(propyl(pyridin-2-yl)amino)piperidin-1-yl)methyl)pyrrolidin-1-yl)methanone]
pIC50 [2]: 6.52

Compound: CCCN(c1nccc(OC)n1)C1CCN(C[C@H]2CN([C@H](CC3CCC3)C(=O)O)C[C@@H]2c2cccc(F)c2)CC1 [(R)-3-Cyclobutyl-2-((3S,4S)-3-(3-fluoro-phenyl)-4-{4-[(4-methoxy-pyrimidin-2-yl)-propyl-amino]-piperidin-1-ylmethyl}-pyrrolidin-1-yl)-propionic acid]
pIC50 [1]: 7.00

Compound: CCN(c1ncccn1)C1CCN(C[C@H]2CN([C@H](CC3CCC3)C(=O)O)C[C@@H]2c2cccc(F)c2)CC1 [(R)-3-Cyclobutyl-2-[(3S,4S)-3-[4-(ethyl-pyrimidin-2-yl-amino)-piperidin-1-ylmethyl]-4-(3-fluoro-phenyl)-pyrrolidin-1-yl]-propionic acid]
pIC50 [1]: 7.00
